Several values for one entry are separate records, joined by “and”; a condition that tells them apart may be missing. Equal entries are not always repeated. Starred links: 1 amine or outer side, 2 acyl side, 3 side chain; linkers in the order of their positions; H or OH if unused. Positions of bridges follow the written chain, without caps; N, C: chain ends. Non-standard residues stand in square brackets, D forms with d. Residues, ends and D or L forms follow the SMILES beside them. *: point of attachment. Orn(4R-OH,5R-OCH2CH2NMe3+) = C[N+](C)(C)CCO[C@@H](N[*:3])[C@H](O)C[C@H](N[*:1])C(=O)[*:2]; pTerphenylCO(4''-OnC5H11) = CCCCCOc1ccc(-c2ccc(-c3ccc(C(=O)*)cc3)cc2)cc1; hTyr(3S-OH,4S-OH) = N[C@H](C(=O)O)[C@H](O)[C@@H](O)c1ccc(O)cc1; Pro(3S-OH,4S-Me) = C[C@H]1CN[C@H](C(=O)O)[C@H]1O; Hyp = O=C(O)[C@@H]1C[C@@H](O)CN1
Tests used:
invasive candidiasis = test: Human subject with invasive candidiasis, single subcutaneous dose (Example 3); assay type: in vivo; settings: single dose of 50-1200 mg acetate salt of CD101, subcutaneous injection
Method: A human subject is diagnosed with invasive candidiasis using standard diagnostic procedures. The subject receives treatment with a single dose of 50-1200 mg (e.g., 75±25 mg, 100±25 mg, 150±50 mg, 200±50 mg, 250±50 mg, 300±50 mg, 350±50 mg, 400±50 mg, 450±50 mg, 500±100 mg, 600±100 mg, 700±100 mg, 800±100 mg, 900±50 mg, 1000 mg±100 mg, or 1100±100 mg) of the acetate salt of CD101 administered by subcutaneous injection. No other antifungal treatment is provided to the subject within one to three weeks before or after administration of the single dose CD101 treatment.

[1] = Previous toxicology studies by the IV route; assay type: in vivo, cynomolgus monkey
Method: Previous toxicology studies by the IV route of administration conducted in cynomolgus monkeys have shown CD101 to be safe and well tolerated at up to at least 30 mg/kg, which generates very high systemic exposures upon initial infusion of CD101 into the bloodstream. Therefore, only local tolerability (and PK) of CD101 by SC administration required evaluation. […] Plasma concentrations were then quantified by liquid chromatography with tandem mass spectrometric detection (LC-MS/MS). Bioavailability from SC dosing was calculated by comparing the calculated area under the concentration-time profile (AUC) from SC against the AUC from IV administration of the same dose.

C. albicans = test: Neutropenic murine disseminated candidiasis model, PK/PD targets, C. albicans
[2] = system: C. albicans SC-5314 biofilms; test: Time lapse microscopy of biofilm formation; assay type: cell-based, Candida albicans; settings: CD101 0.25 μg/ml; 0 h up to 16 h
Description: The effective CD101 concentration obtained from the above experiments was used to monitor its effect on biofilm formation in real time using TLM, which involves capturing real-time images of a single frame at specific time intervals, allowing temporal monitoring of the interactions occurring between the drug and Candida biofilms. Captured images were combined in a time sequence, resulting in an animation depicting the sequence of events that occurred with the passage of time. Briefly, the discs with C. albicans (adhered for 90 min as above) were placed in a 35-mm-diameter glass-bottom Petri dish (MatTek Corp., Ashland, Mass.). […] Phase contrast images for this interaction were captured immediately from 0 h and followed up to 16-17 h on a Leica DMI 6000 B inverted microscope connected to a Retiga EXi Aqua camera (Q-imaging Vancouver British Columbia). To determine the structural changes in the maturing biofilm, both acquisition and analysis of a series of horizontal (xy) optical sections of the biofilm was done using Metamorph Imaging software (Molecular Devices, Downington, Pa.). Disc incubated with media alone was used as control.

[3] = system: Aspergillus fumigatus (ATCC 13073); test: Neutropenic mouse aspergillosis model, survival; assay type: in vivo; settings: CD101 2 mg/kg IV or IP one dose; 10 days
A. fumigatus ATCC 13073 = test: Disseminated aspergillosis, treatment, neutropenic ICR mice (Example 17); assay type: in vivo, Aspergillus fumigatus
Description: Survival monitored for ≥10 days.

C. glabrata = test: In vitro susceptibility testing (CLSI M27-A3), C. glabrata; assay type: cell-based, Candida glabrata; settings: Nakaseomyces glabratus, 24 h
Method: Ten clinical Candida strains were used for the in vivo treatment studies, including four C. albicans, three C. glabrata, and three C. parapsilosis strains (Table 15). This group was selected to encompass phenotypic variability in susceptibility to triazoles and echinocandins and based on similar fitness in the animal model as defined by the amount of growth in control animals over 24 h. The organisms were maintained, grown, and quantified on Sabouraud's dextrose agar (SDA) plates.
In vitro susceptibility testing. All isolates were tested in accordance with the standards in CLSI document M27-A3. The MICs were determined visually after 24 h of incubation as the lowest concentration of drug that causes a significant diminution (50%) of growth compared to controls. MICs were determined on three separate occasions in duplicate.

[4] = C. albicans, Median of 4 strains

CCCCCOc1ccc(-c2ccc(-c3ccc(C(=O)N[C@H]4C[C@@H](O)[C@@H](OCC[N+](C)(C)C)NC(=O)[C@@H]5[C@@H](O)[C@@H](C)CN5C(=O)[C@H]([C@@H](C)O)NC(=O)[C@H]([C@H](O)[C@@H](O)c5ccc(O)cc5)NC(=O)[C@@H]5C[C@@H](O)CN5C(=O)[C@H]([C@@H](C)O)NC4=O)cc3)cc2)cc1 [CD101] ({pTerphenylCO(4''-OnC5H11)}-[Orn(4R-OH,5R-OCH2CH2NMe3+)]T[Hyp][hTyr(3S-OH,4S-OH)]T[Pro(3S-OH,4S-Me)]; lactam 1-C)
invasive candidiasis infection at follow-up visit (invasive candidiasis): confirmed to be resolved
dose safe and well tolerated [1]: at least 30 mg/kg
1 log kill 24 h Ave Free drug AUC/MIC (C. albicans; C. albicans 98-17): 3.92
1 log kill dose (C. albicans; C. albicans 98-17): 2.73 mg/kg
1 log kill free drug AUC0-168h/MIC (C. albicans; C. albicans 98-17): 27.47
1 log kill total drug AUC0-168h/MIC (C. albicans; C. albicans 98-17): 3433.40
Stasis 24 h Ave free drug AUC/MIC (C. albicans; C. albicans 98-17): 2.19
Stasis free drug AUC0-168h/MIC (C. albicans; C. albicans 98-17): 15.35
Stasis total drug AUC0-168h/MIC (C. albicans; C. albicans 98-17): 1918.43
Static dose (C. albicans; C. albicans 98-17): 1.34 mg/kg
1 log kill 24 h Ave Free drug AUC/MIC (C. albicans; C. albicans 98-210): 6.72
1 log kill dose (C. albicans; C. albicans 98-210): 2.28 mg/kg
1 log kill free drug AUC0-168h/MIC (C. albicans; C. albicans 98-210): 47.01
1 log kill total drug AUC0-168h/MIC (C. albicans; C. albicans 98-210): 5875.95
Stasis 24 h Ave free drug AUC/MIC (C. albicans; C. albicans 98-210): 3.70
Stasis free drug AUC0-168h/MIC (C. albicans; C. albicans 98-210): 25.93
Stasis total drug AUC0-168h/MIC (C. albicans; C. albicans 98-210): 3241.65
Static dose (C. albicans; C. albicans 98-210): 1.06 mg/kg
1 log kill 24 h Ave Free drug AUC/MIC (C. albicans; C. albicans 580): 3.05
1 log kill dose (C. albicans; C. albicans 580): 2.03 mg/kg
1 log kill free drug AUC0-168h/MIC (C. albicans; C. albicans 580): 21.34
1 log kill total drug AUC0-168h/MIC (C. albicans; C. albicans 580): 2667.21
Stasis 24 h Ave free drug AUC/MIC (C. albicans; C. albicans 580): 2.02
Stasis free drug AUC0-168h/MIC (C. albicans; C. albicans 580): 14.15
Stasis total drug AUC0-168h/MIC (C. albicans; C. albicans 580): 1769.30
Static dose (C. albicans; C. albicans 580): 1.20 mg/kg
1 log kill 24 h Ave Free drug AUC/MIC (C. albicans; C. albicans K-1): 6.86
1 log kill dose (C. albicans; C. albicans K-1): 5.26 mg/kg
1 log kill free drug AUC0-168h/MIC (C. albicans; C. albicans K-1): 48.05
1 log kill total drug AUC0-168h/MIC (C. albicans; C. albicans K-1): 6005.95
Stasis 24 h Ave free drug AUC/MIC (C. albicans; C. albicans K-1): 3.65
Stasis free drug AUC0-168h/MIC (C. albicans; C. albicans K-1): 25.58
Stasis total drug AUC0-168h/MIC (C. albicans; C. albicans K-1): 3197.16
Static dose (C. albicans; C. albicans K-1): 2.52 mg/kg
1 log kill 24 h Ave Free drug AUC/MIC (C. albicans; C. albicans, Mean of 4 strains): 5.14
1 log kill dose (C. albicans; C. albicans, Mean of 4 strains): 3.08 mg/kg
1 log kill free drug AUC0-168h/MIC (C. albicans; C. albicans, Mean of 4 strains): 35.97
1 log kill total drug AUC0-168h/MIC (C. albicans; C. albicans, Mean of 4 strains): 4495.63
Stasis 24 h Ave free drug AUC/MIC (C. albicans; C. albicans, Mean of 4 strains): 2.89
Stasis free drug AUC0-168h/MIC (C. albicans; C. albicans, Mean of 4 strains): 20.25
Stasis total drug AUC0-168h/MIC (C. albicans; C. albicans, Mean of 4 strains): 2531.64
Static dose (C. albicans; C. albicans, Mean of 4 strains): 1.53 mg/kg
1 log kill 24 h Ave Free drug AUC/MIC (C. albicans; [4]): 5.32
1 log kill dose (C. albicans; [4]): 2.51 mg/kg
1 log kill free drug AUC0-168h/MIC (C. albicans; [4]): 37.24
1 log kill total drug AUC0-168h/MIC (C. albicans; [4]): 4654.68
Stasis 24 h Ave free drug AUC/MIC (C. albicans; [4]): 2.92
Stasis free drug AUC0-168h/MIC (C. albicans; [4]): 20.5 and 20.46
Stasis total drug AUC0-168h/MIC (C. albicans; [4]): 2557.79
Static dose (C. albicans; [4]): 1.27 mg/kg
kill at high doses (C. albicans; C. albicans, a number of strains): > 2 log10
biofilm formation in real time [2]: only adhered cells with stunted growth, which failed to grow into mature biofilms
survival vs vehicle [3]: significantly longer survival than vehicle
survival compared to vehicle (A. fumigatus ATCC 13073; CD101 IV/IP 0.2, 1, or 5 mg/kg BID×5d): significant increase in survival compared to vehicle
survival (A. fumigatus ATCC 13073; single 2 mg/kg vs 0.2 mg/kg BID×5d): Survival was comparable
MIC (C. glabrata; C. glabrata 5592): 0.125 µg/mL
MIC (C. glabrata; C. glabrata 10956): 1 µg/mL
MIC (C. glabrata; C. glabrata 35315): 0.5 µg/mL
